Experiments:
[1] = biological target: hNAMPT protein (Homo sapiens (Human), UniProt P43490); assay: NAMPT enzyme assay (TR-FRET/HTRF, BodiPY ligand, anti 6His-Tb); assay type: binding; conditions: for inhibition at 1 µM: NAMPT inhibition at compound concentration 1 μM, read-out: Percent Inhibition; for IC50: NAMPT inhibition, IC50 range class, read-out: IC50
Outline: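 TR-FRET binding assay in which His-tagged human NAMPT with anti-6His-Tb is displaced by compound from a BodiPY ligand, incubated 1 h at rt in the dark. Excitation was at 320 nm, with the 520/486 nm emission ratio read. IC50 was fitted from inhibition relative to DMSO controls.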

[2] = tested on: PC3 cells; assay: PC3 growth inhibition (Cell-titer glo, 72 hours); assay type: cell-based; conditions: Homo sapiens, PC-3; compound concentration 1.667 μM; PC3 cells, 72 hours, Cell-titer glo; read-out: Percent Inhibition (PC3 growth inhibition)
Outline: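 PC3 cells in RPMI1640 seeded overnight at 37 °C, 5% CO2, then exposed to compound diluted in AIM serum-free medium for 72 h. Viability by CellTiter-Glo luminescence vs DMSO controls; single-concentration % remaining viability (1 μM or 1.667 μM), or GI50/LD50 from curves.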

[3] = tested on: activated T cells; conditions: cited from earlier work
[4] = tested on: collagen-induced arthritis; conditions: cited from earlier work
[5] = tested on: experimental autoimmune encephalomyelitis (EAE); conditions: model of T-cell mediated autoimmune disorders; cited from earlier work

Sequence of hNAMPT protein (P43490 whole entry): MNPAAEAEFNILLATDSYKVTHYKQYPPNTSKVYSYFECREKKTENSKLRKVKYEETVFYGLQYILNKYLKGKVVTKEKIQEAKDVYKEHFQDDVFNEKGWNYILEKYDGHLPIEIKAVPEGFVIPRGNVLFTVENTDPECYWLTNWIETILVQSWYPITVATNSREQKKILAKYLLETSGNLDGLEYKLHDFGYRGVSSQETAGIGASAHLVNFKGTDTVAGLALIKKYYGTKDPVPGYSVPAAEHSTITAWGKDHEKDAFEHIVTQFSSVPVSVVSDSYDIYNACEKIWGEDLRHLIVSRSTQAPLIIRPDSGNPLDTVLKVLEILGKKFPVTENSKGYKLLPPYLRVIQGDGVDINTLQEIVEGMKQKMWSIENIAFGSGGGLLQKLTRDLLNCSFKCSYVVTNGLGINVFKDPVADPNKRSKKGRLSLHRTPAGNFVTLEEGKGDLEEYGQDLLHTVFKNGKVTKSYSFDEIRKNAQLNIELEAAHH

## O=C(NCCCc1ncc[nH]1)c1ccc2nc(OCC3CCCC3)c(-c3ccc(F)cc3)nc2c1 [Compound I-500, 2-(cyclopentylmethoxy)-3-(4-fluorophenyl)-N-[3-(1H-imidazol-2-yl)propyl]quinoxaline-6-carboxamide]
[1]
  inhibition at 1 µM: 93%
  IC50: < 0.1 µM
[2]
  inhibition at 1.667 µM: 3%

## N#Cc1ccc(F)c(-c2nc3cc(C(=O)NCCCc4ncc[nH]4)ccc3nc2-c2ccc(F)cc2)c1 [Compound I-501, 3-(5-cyano-2-fluorophenyl)-2-(4-fluorophenyl)-N-[3-(1H-imidazol-2-yl)propyl]quinoxaline-6-carboxamide]
[1]
  inhibition at 1 µM: 99%
  IC50: < 0.1 µM
[2]
  inhibition at 1.667 µM: 2%

## O=C(NCCCc1ncc[nH]1)c1ccc2nc(-c3ccc(F)cc3)c(-c3ccc(F)c(Cl)c3)nc2c1 [Compound I-502, N-(3-(1H-imidazol-2-yl)propyl)-3-(3-chloro-4-fluorophenyl)-2-(4-fluorophenyl)quinoxaline-6-carboxamide]
[1]
  inhibition at 1 µM: 97%
  IC50: < 0.1 µM
[2]
  inhibition at 1.667 µM: 2%

## Cc1cnn(-c2nc3ccc(C(=O)NCCCc4ncc[nH]4)cc3nc2-c2ccc(F)cc2)c1 [Compound I-503, 3-(4-fluorophenyl)-N-[3-(1H-imidazol-2-yl)propyl]-2-(4-methyl-1H-pyrazol-1-yl)quinoxaline-6-carboxamide]
[1]
  inhibition at 1 µM: 84%
  IC50: 0.1 to 0.5 µM
[2]
  inhibition at 1.667 µM: 3%

## O=C(NCCCc1ncc[nH]1)c1ccc2nc(-c3ccc(F)cc3)c(-c3sccc3Cl)nc2c1 [Compound I-504, 3-(3-chloro-2-thienyl)-2-(4-fluorophenyl)-N-[3-(1H-imidazol-2-yl)propyl]quinoxaline-6-carboxamide]
[1]
  inhibition at 1 µM: 93%
  IC50: < 0.1 µM
[2]
  inhibition at 1.667 µM: 3%

## CN1CCCC1CCOc1nc2ccc(C(=O)NCCCc3ncc[nH]3)cc2nc1-c1ccc(F)cc1 (stereo not drawn) [Compound I-505, 3-(4-fluorophenyl)-N-[3-(1H-imidazol-2-yl)propyl]-2-[2-(1-methylpyrrolidin-2-yl)ethoxy]quinoxaline-6-carboxamide]
[1]
  inhibition at 1 µM: > 99%
  IC50: < 0.1 µM
[2]
  inhibition at 1.667 µM: 3%

## CC(C)Oc1nc2ccc(C(=O)NCc3cn4cccnc4n3)cc2nc1-c1ccc(F)cc1 [Compound I-506, 3-(4-Fluorophenyl)-N-(imidazo[1,2-a]pyrimidin-2-ylmethyl)-2-isopropoxyquinoxaline-6-carboxamide]
[1]
  inhibition at 1 µM: 78%
  IC50: 0.1 to 0.5 µM
[2]
  inhibition at 1.667 µM: > 99%

## Cc1ccc(F)c(-c2nc3cc(C(=O)NCCCc4ncc[nH]4)ccc3nc2-c2ccc(F)cc2)c1 [Compound I-507, 3-(2-fluoro-5-methylphenyl)-2-(4-fluorophenyl)-N-[3-(1H-imidazol-2-yl)propyl]quinoxaline-6-carboxamide]
[1]
  inhibition at 1 µM: 97%
  IC50: < 0.1 µM
[2]
  inhibition at 1.667 µM: 2%

## O=C(NCCCc1cn[nH]c1)c1ccc2nc(-c3ccc(F)cc3)c(-c3ccc(F)cc3)nc2c1 [Compound I-508, 2,3-bis(4-fluorophenyl)-N-[3-(1H-pyrazol-4-yl)propyl]quinoxaline-6-carboxamide]
[1]
  inhibition at 1 µM: 73%
  IC50: 0.1 to 0.5 µM
[2]
  inhibition at 1.667 µM: 3%

## CN(C)CCOc1nc2ccc(C(=O)NCCCc3ncc[nH]3)cc2nc1-c1ccc(F)cc1 [Compound I-509, 2-[2-(dimethylamino)ethoxy]-3-(4-fluorophenyl)-N-[3-(1H-imidazol-2-yl)propyl]quinoxaline-6-carboxamide]
[1]
  inhibition at 1 µM: 94%
  IC50: < 0.1 µM
[2]
  inhibition at 1.667 µM: 3%

## CN1CCCC(COc2nc3ccc(C(=O)NCCCc4ncc[nH]4)cc3nc2-c2ccc(F)cc2)C1 (stereo not drawn) [Compound I-510, 3-(4-fluorophenyl)-N-[3-(1H-imidazol-2-yl)propyl]-2-[(1-methylpiperidin-3-yl)methoxy]quinoxaline-6-carboxamide]
[1]
  inhibition at 1 µM: 98%
  IC50: < 0.1 µM
[2]
  inhibition at 1.667 µM: 2%

## COc1cccc(-c2nc3cc(C(=O)NCCCc4ncc[nH]4)ccc3nc2OC(C)C)c1 [Compound I-511, N-[3-(1H-imidazol-2-yl)propyl]-2-isopropoxy-3-(3-methoxyphenyl)quinoxaline-6-carboxamide]
[1]
  inhibition at 1 µM: > 99%
  IC50: < 0.1 µM
[2]
  inhibition at 1.667 µM: 2%

## COc1cc(F)cc(-c2nc3cc(C(=O)NCCCc4ncc[nH]4)ccc3nc2-c2ccc(F)cc2)c1 [Compound I-512, 3-(3-fluoro-5-methoxyphenyl)-2-(4-fluorophenyl)-N-[3-(1H-imidazol-2-yl)propyl]quinoxaline-6-carboxamide]
[1]
  inhibition at 1 µM: 92%
  IC50: < 0.1 µM
[2]
  inhibition at 1.667 µM: 2%

## CN1CCC(COc2nc3ccc(C(=O)NCCCc4ncc[nH]4)cc3nc2-c2ccc(F)cc2)C1 (stereo not drawn) [Compound I-513, 3-(4-fluorophenyl)-N-[3-(1H-imidazol-2-yl)propyl]-2-[(1-methylpyrrolidin-3-yl)methoxy]quinoxaline-6-carboxamide]
[1]
  inhibition at 1 µM: 99%
  IC50: < 0.1 µM
[2]
  inhibition at 1.667 µM: 3%

## O=C(NCCCc1ncc[nH]1)c1ccc2nc(OC3CCNCC3)c(-c3ccc(F)cc3)nc2c1 [Compound I-514, 3-(4-fluorophenyl)-N-[3-(1H-imidazol-2-yl)propyl]-2-(piperidin-4-yloxy)quinoxaline-6-carboxamide]
[1]
  inhibition at 1 µM: 97%
  IC50: < 0.1 µM
[2]
  inhibition at 1.667 µM: 3%

## COc1cc(-c2nc3cc(C(=O)NCCCc4nnc[nH]4)ccc3nc2-c2ccc(F)cc2)c(F)cn1 [Compound I-515, 3-(5-fluoro-2-methoxypyridin-4-yl)-2-(4-fluorophenyl)-N-[3-(4H-1,2,4-triazol-3-yl)propyl]quinoxaline-6-carboxamide]
[1]
  inhibition at 1 µM: 75%
  IC50: 0.1 to 0.5 µM
[2]
  inhibition at 1.667 µM: 1%

## COc1cc(-c2nc3cc(C(=O)NCc4nc5cnccc5[nH]4)ccc3nc2-c2ccc(F)cc2)c(F)cn1 [Compound I-516, 3-(5-fluoro-2-methoxypyridin-4-yl)-2-(4-fluorophenyl)-N-(1H-imidazo[4,5-c]pyridin-2-ylmethyl)quinoxaline-6-carboxamide]
[1]
  inhibition at 1 µM: 93%
  IC50: < 0.1 µM
[2]
  inhibition at 1.667 µM: 1%

## CCOc1cc(-c2nc3cc(C(=O)NCCCc4ncc[nH]4)ccc3nc2-c2ccc(F)cc2)c(F)cn1 [Compound I-517, 3-(2-ethoxy-5-fluoropyridin-4-yl)-2-(4-fluorophenyl)-N-[3-(1H-imidazol-2-yl)propyl]quinoxaline-6-carboxamide]
[1]
  inhibition at 1 µM: 76%
  IC50: 0.1 to 0.5 µM
[2]
  inhibition at 1.667 µM: 1%

## CC(C)Oc1cc(-c2nc3cc(C(=O)NCCCc4ncc[nH]4)ccc3nc2-c2ccc(F)cc2)c(F)cn1 [Compound I-518, 3-(5-fluoro-2-isopropoxypyridin-4-yl)-2-(4-fluorophenyl)-N-[3-(1H-imidazol-2-yl)propyl]quinoxaline-6-carboxamide]
[1]
  inhibition at 1 µM: 86%
  IC50: 0.1 to 0.5 µM
[2]
  inhibition at 1.667 µM: 1%

## COc1cc(-c2nc3cc(C(=O)NCCCc4nccn4C)ccc3nc2-c2ccc(F)cc2)c(F)cn1 [Compound I-519, 3-(5-fluoro-2-methoxypyridin-4-yl)-2-(4-fluorophenyl)-N-[3-(1-methyl-1H-imidazol-2-yl)propyl]quinoxaline-6-carboxamide]
[1]
  inhibition at 1 µM: 97%
  IC50: < 0.1 µM
[2]
  inhibition at 1.667 µM: 99%

## O=C(NCCCc1nnc[nH]1)c1ccc2nc(-c3ccc(F)cc3)c(-c3cc(Cl)ccc3F)nc2c1 [Compound I-520, 3-(5-chloro-2-fluorophenyl)-2-(4-fluorophenyl)-N-[3-(4H-1,2,4-triazol-3-yl)propyl]quinoxaline-6-carboxamide]
[1]
  inhibition at 1 µM: 89%
  IC50: < 0.1 µM
[2]
  inhibition at 1.667 µM: 1%

## O=C(/C=C/c1cccnc1)NCCCCC1CCN(C(=O)c2ccccc2)CC1 [FK866]
[3]
  effect on activated T cells: selectively block proliferation and induce apoptosis of activated T cells
[4]
  efficacy in animal models of arthritis: efficacious
[5]
  effect on manifestations of EAE: ameliorated the manifestations of experimental autoimmune encephalomyelitis

From patent US10144742B2 (Millennium Pharmaceuticals, Inc., priority 2014, dated 2018)
